Converted amounts (≈) assume the structure as drawn. Ends that are not written are not given here. Peptide text beside a SMILES is read from it. * marks the point of attachment. X4 = COCCOCCOCCOCCOCCOCCOCCOCCOCCOCCOCCOCCOCCOCCOCCOCCOCCOCCOCCOCCOCCOCCOCCOCCOCCOCCOCCOCCOCCOCCOCCOCCOCCOCCOCCOCCOCCOCCOCCOCCOCCOCCOCCOCCOCCOCCOCCOCCNC(=O)CCN1C(=O)CC(*)C1=O; X3 = COCCOCCOCCOCCOCCOCCOCCOCCOCCOCCOCCOCCOCCOCCOCCOCCOCCOCCOCCOCCOCCOCCOCCOCCOCCOCCOCCOCCOCCOCCOCCOCCOCCOCCOCCOCCNC(=O)CCN1C(=O)CC(*)C1=O; X2 = COCCOCCOCCOCCOCCOCCOCCOCCOCCOCCOCCOCCOCCOCCOCCOCCOCCOCCOCCOCCOCCOCCOCCOCCNC(=O)CCN1C(=O)CC(*)C1=O; X1 = COCCOCCOCCOCCOCCOCCOCCOCCOCCOCCOCCOCCNC(=O)CCN1C(=O)CC(*)C1=O
How the values were obtained:
pUC19 plasmid DNA = assay: Plasmid DNA cleavage by reactive oxygen species; format: biochemical; conditions: 10 μM base pair pUC19, 100 nM M-chelate, 1 mM H2O2, 1 mM ascorbate, pH 7.4
[1] = tested on: A. baumanii, BAA-747 (Ab); conditions: BAA-747
[2] = tested on: E. coli O157:H7, BAA-1883 (Ec F); conditions: O157:H7
[3] = Cytotoxicity toward human Huh7 liver cells
E. coli, 25922 (Ec) = conditions: 25922 (Ec)
[4] = tested on: Gram+ & Gram−, Fungi, Virus, Parasites, Protozoan, HIV, Cancer cells; conditions: Antimicrobial Peptide Database; cited from earlier work
[5] = tested on: S. pneumoniae, 49619 (Sp); conditions: 49619 (Sp)
[6] = tested on: K. pneumonia, 700603 (Kp); format: cell-based; conditions: Mueller Hinton Broth

Compound: O=C([O-])CN1CCN(CC(=O)O)CCN(CC(=O)[O-])CCN(CC(=O)O)CC1.[Cu+2] [Cu-DOTA]
- Linear (μM bp) (pUC19 plasmid DNA): 0.09 μM bp
- Nicked (μM bp) (pUC19 plasmid DNA): 1.31 μM bp
- Supercoiled (μM bp) (pUC19 plasmid DNA): 8.59 μM bp

Compound: CC[C@H](C)[C@H](NC(=O)[C@H](Cc1c[nH]cn1)NC(=O)CNC(=O)CN)C(=O)N[C@@H](CCCNC(=N)N)C(=O)N[C@@H](CCCNC(=N)N)C(=O)N[C@H](C(=O)N[C@H](C(=O)N[C@@H](CCCNC(=N)N)C(=O)N[C@@H](CCCCN)C(=O)N[C@H](C(=O)N[C@H](C(=O)N[C@@H](Cc1c[nH]cn1)C(=O)N[C@H](C(=O)N[C@H](C(=O)N[C@@H](CCCCN)C(=O)N[C@@H](CCCCN)C(=O)NCC(=O)NCC(=O)N[C@@H](CSC1CC(=O)N(CCC(=O)NCCOCCOCCOCCOCCOCCOCCOCCOCCOCCOCCOCCOCCOCCOCCOCCOCCOCCOCCOCCOCCOCCOCCOCCOCCOCCOCCOCCOCCOCCOCCOCCOCCOCCOCCOCCOC)C1=O)C(=O)O)[C@@H](C)CC)[C@@H](C)CC)[C@@H](C)CC)[C@@H](C)CC)[C@@H](C)CC)[C@@H](C)CC (some centres unmarked) [PEP 318 PEG 36] (H-GGHIRRIIRKIIHIIKKGGC(X3)-OH; C-terminus assumed)
- MIC Ab [1]: 7.9 µM (≈ 31.9 µg/mL)
- MIC Ec F [2]: 15.8 µM (≈ 63.8 µg/mL)
- IC50 [3]: > 200 µM
- MIC Ec (E. coli, 25922 (Ec)): 15.8 µM (≈ 63.8 µg/mL)

Compound: IRRIIRKIIHIIKKGGC [SEQ ID NO: 65]
- activity against organisms [4]: active against Gram+ & Gram−, Fungi

Compound: CC[C@H](C)[C@H](NC(=O)[C@H](CCCCN)NC(=O)[C@H](Cc1c[nH]c2ccccc12)NC(=O)[C@H](CCCNC(=N)N)NC(=O)[C@H](CCCNC(=N)N)NC(=O)[C@H](Cc1c[nH]cn1)NC(=O)CNC(=O)CN)C(=O)N[C@H](C(=O)N[C@H](C(=O)N[C@H](C(=O)N[C@@H](CCCNC(=N)N)C(=O)N[C@@H](Cc1c[nH]c2ccccc12)C(=O)N[C@@H](CCCNC(=N)N)C(=O)N[C@@H](CCCNC(=N)N)C(=O)NCC(=O)NCC(=O)N[C@@H](CSC1CC(=O)N(CCC(=O)NCCOCCOCCOCCOCCOCCOCCOCCOCCOCCOCCOCCOCCOCCOCCOCCOCCOCCOCCOCCOCCOCCOCCOCCOCCOCCOCCOCCOCCOCCOCCOCCOCCOCCOCCOCCOC)C1=O)C(=O)O)[C@@H](C)CC)C(C)C)C(C)C (some centres unmarked) [PEP 314 PEG 36] (H-GGHRRWKIVVIRWRRGGC(X3)-OH; C-terminus assumed)
- MIC Sp [5]: 8.1 µM (≈ 32.1 µg/mL)
- IC50 [3]: > 200 µM

Compound: GRRWKIVVIRWRRGGC [SEQ ID NO: 67]
- activity against organisms [4]: active against Gram+ & Gram−

Compound: VRRFPWWWPFLRRGGC [SEQ ID NO: 66]
- activity against organisms [4]: active against Gram+ & Gram−, Fungi

Compound: GILAWKWAWWAWRR [SEQ ID NO: 55]
- activity against organisms [4]: active against Gram+ & Gram−, Fungi, Virus, HIV

Compound: CC(C)C[C@H](NC(=O)[C@H](CCCNC(=N)N)NC(=O)[C@H](CCC(N)=O)NC(=O)[C@H](CCCCN)NC(=O)[C@@H](NC(=O)[C@H](CCCCN)NC(=O)[C@H](CCCNC(=N)N)NC(=O)[C@H](CC(C)C)NC(=O)[C@H](CC(N)=O)NC(=O)[C@H](Cc1ccccc1)NC(=O)[C@H](Cc1ccccc1)NC(=O)[C@H](CC(C)C)NC(=O)[C@H](CCCCN)NC(=O)[C@H](CCCNC(=N)N)NC(=O)[C@H](CCC(N)=O)NC(=O)CNC(=O)[C@H](Cc1c[nH]cn1)NC(=O)CNC(=O)CN)[C@@H](C)O)C(=O)NCC(=O)N[C@@H](Cc1c[nH]c2ccccc12)C(=O)N[C@@H](Cc1ccccc1)C(=O)N[C@@H](CC(N)=O)C(=O)N[C@@H](CCC(N)=O)C(=O)N[C@@H](CS)C(=O)O [PEP 192]
- MIC Kp [6]: 5.3 µM (≈ 16 µg/mL)

Compound: RRWKIVVIRWRRGGC [SEQ ID NO: 62]
- activity against organisms [4]: active against Gram+ & Gram−

Compound: GGHGIRRIIRKIIHIIKK-NH2 (C-terminus assumed) [PEP 188, GGHGIRRIIRKIIHIIKK]
- MIC Kp [6]: 1.9 µM

Compound: CC[C@H](C)[C@H](NC(=O)[C@H](Cc1c[nH]cn1)NC(=O)CNC(=O)CN)C(=O)N[C@@H](CCCNC(=N)N)C(=O)N[C@@H](CCCNC(=N)N)C(=O)N[C@H](C(=O)N[C@H](C(=O)N[C@@H](CCCNC(=N)N)C(=O)N[C@@H](CCCCN)C(=O)N[C@H](C(=O)N[C@H](C(=O)N[C@@H](Cc1c[nH]cn1)C(=O)N[C@H](C(=O)N[C@H](C(=O)N[C@@H](CCCCN)C(=O)N[C@@H](CCCCN)C(=O)NCC(=O)NCC(=O)N[C@@H](CSC1CC(=O)N(CCC(=O)NCCOCCOCCOCCOCCOCCOCCOCCOCCOCCOCCOCCOCCOCCOCCOCCOCCOCCOCCOCCOCCOCCOCCOCCOC)C1=O)C(=O)O)[C@@H](C)CC)[C@@H](C)CC)[C@@H](C)CC)[C@@H](C)CC)[C@@H](C)CC)[C@@H](C)CC (some centres unmarked) [PEP 318 PEG 24] (H-GGHIRRIIRKIIHIIKKGGC(X2)-OH; C-terminus assumed)
- MIC Ab [1]: 9.1 µM (≈ 31.9 µg/mL)
- MIC Ec F [2]: 18.2 µM (≈ 63.9 µg/mL)
- IC50 [3]: > 200 µM
- MIC Ec (E. coli, 25922 (Ec)): 9.1 µM (≈ 31.9 µg/mL)

Compound: NCC(=O)NCC(=O)N[C@@H](Cc1c[nH]cn1)C(=O)N1CCN(c2cc3c(cc2F)c(=O)c(C(=O)O)cn3C2CC2)CC1 [GGH CIPRO]
- MIC Ec F [2]: 8 µM (≈ 4.66 µg/mL)

Compound: GIRRIIRKIIHIIKKGGC [SEQ ID NO: 59]
- activity against organisms [4]: active against Gram+ & Gram−, Fungi GVR

Compound: CC[C@H](C)[C@H](NC(=O)[C@H](CCCCN)NC(=O)[C@H](Cc1c[nH]c2ccccc12)NC(=O)[C@H](CCCNC(=N)N)NC(=O)[C@H](CCCNC(=N)N)NC(=O)[C@H](Cc1c[nH]cn1)NC(=O)CNC(=O)CN)C(=O)N[C@H](C(=O)N[C@H](C(=O)N[C@H](C(=O)N[C@@H](CCCNC(=N)N)C(=O)N[C@@H](Cc1c[nH]c2ccccc12)C(=O)N[C@@H](CCCNC(=N)N)C(=O)N[C@@H](CCCNC(=N)N)C(=O)NCC(=O)NCC(=O)N[C@@H](CSC1CC(=O)N(CCC(=O)NCCOCCOCCOCCOCCOCCOCCOCCOCCOCCOCCOCCOC)C1=O)C(=O)O)[C@@H](C)CC)C(C)C)C(C)C (some centres unmarked) [PEP 314 PEG 12] (H-GGHRRWKIVVIRWRRGGC(X1)-OH; C-terminus assumed)
- MIC Ab [1]: 2.7 µM (≈ 7.84 µg/mL)
- MIC Sp [5]: 11 µM (≈ 31.9 µg/mL)
- MIC Ec F [2]: 11 µM (≈ 31.9 µg/mL)
- MIC Ec (E. coli, 25922 (Ec)): 11 µM (≈ 31.9 µg/mL)

Compound: GRLARIVVIRVAR [SEQ ID NO: 56]
- activity against organisms [4]: active against Gram+ & Gram−

Compound: Cu-GGHC-Amik fr3: copper complex of GGHC-Amikacin, fraction 3 (also: copper complex, amikacin conjugate, site not given here)
- Linear (μM bp) (pUC19 plasmid DNA): 0.04 μM bp
- Nicked (μM bp) (pUC19 plasmid DNA): 6.46 μM bp
- Supercoiled (μM bp) (pUC19 plasmid DNA): 3.50 μM bp

Compound: GVRRFPWWWPFLRR [SEQ ID NO: 54]
- activity against organisms [4]: active against Gram+ & Gram−, Fungi

Compound: GGHGVRRFPWWWPFLRR [PEP 189, GGHGVRRFPWWWPFLRR]
- MIC Kp [6]: 7.2 µM

Compound: CC[C@H](C)[C@H](NC(=O)[C@H](CCCCN)NC(=O)[C@H](Cc1c[nH]c2ccccc12)NC(=O)[C@H](CCCNC(=N)N)NC(=O)[C@H](CCCNC(=N)N)NC(=O)[C@H](Cc1c[nH]cn1)NC(=O)CNC(=O)CN)C(=O)N[C@H](C(=O)N[C@H](C(=O)N[C@H](C(=O)N[C@@H](CCCNC(=N)N)C(=O)N[C@@H](Cc1c[nH]c2ccccc12)C(=O)N[C@@H](CCCNC(=N)N)C(=O)N[C@@H](CCCNC(=N)N)C(=O)NCC(=O)NCC(=O)N[C@@H](CSC1CC(=O)N(CCC(=O)NCCOCCOCCOCCOCCOCCOCCOCCOCCOCCOCCOCCOCCOCCOCCOCCOCCOCCOCCOCCOCCOCCOCCOCCOCCOCCOCCOCCOCCOCCOCCOCCOCCOCCOCCOCCOCCOCCOCCOCCOCCOCCOCCOCCOCCOCCOCCOCCOC)C1=O)C(=O)O)[C@@H](C)CC)C(C)C)C(C)C (some centres unmarked) [PEP 314 PEG 48] (H-GGHRRWKIVVIRWRRGGC(X4)-OH; C-terminus assumed)
- MIC Sp [5]: 7.1 µM (≈ 31.9 µg/mL)
- IC50 [3]: > 200 µM

Compound: CC/C(=C(\c1ccccc1)c1ccc(OCCN(C)C)cc1)c1ccccc1 [Tamoxifen, reference compound]
- IC50 [3]: 42 µM

Compound: FVQWFSKFLGRILGGC [SEQ ID NO: 63]
- activity against organisms [4]: active against Gram+ & Gram−, Virus, Parasites, Protozoan

Compound: GIRRIIRKIIHIIKK [SEQ ID NO: 53]
- activity against organisms [4]: active against Gram+ & Gram−, Fungi

Compound: CC[C@H](C)[C@H](NC(=O)[C@H](Cc1c[nH]cn1)NC(=O)CNC(=O)CN)C(=O)N[C@@H](CCCNC(=N)N)C(=O)N[C@@H](CCCNC(=N)N)C(=O)N[C@H](C(=O)N[C@H](C(=O)N[C@@H](CCCNC(=N)N)C(=O)N[C@@H](CCCCN)C(=O)N[C@H](C(=O)N[C@H](C(=O)N[C@@H](Cc1c[nH]cn1)C(=O)N[C@H](C(=O)N[C@H](C(=O)N[C@@H](CCCCN)C(=O)N[C@@H](CCCCN)C(=O)NCC(=O)NCC(=O)N[C@@H](CSC1CC(=O)N(CCC(=O)NCCOCCOCCOCCOCCOCCOCCOCCOCCOCCOCCOCCOCCOCCOCCOCCOCCOCCOCCOCCOCCOCCOCCOCCOCCOCCOCCOCCOCCOCCOCCOCCOCCOCCOCCOCCOCCOCCOCCOCCOCCOCCOCCOCCOCCOCCOCCOCCOC)C1=O)C(=O)O)[C@@H](C)CC)[C@@H](C)CC)[C@@H](C)CC)[C@@H](C)CC)[C@@H](C)CC)[C@@H](C)CC (some centres unmarked) [PEP 318 PEG 48] (H-GGHIRRIIRKIIHIIKKGGC(X4)-OH; C-terminus assumed)
- MIC Ab [1]: 13.9 µM (≈ 63.5 µg/mL)
- IC50 [3]: > 200 µM

Compound: RFPWWWPFLRRGGC [SEQ ID NO: 60]
- activity against organisms [4]: active against Gram+ & Gram−, Fungi

Compound: O=C([O-])CN(CCN(CC(=O)[O-])CC(=O)[O-])CC(=O)[O-].[Fe+3] [Fe-EDTA]
- Linear (μM bp) (pUC19 plasmid DNA): 0.30 μM bp
- Nicked (μM bp) (pUC19 plasmid DNA): 2.44 μM bp
- Supercoiled (μM bp) (pUC19 plasmid DNA): 7.26 μM bp

Compound: GILAWKWAWWAWRRGGC [SEQ ID NO: 61]
- activity against organisms [4]: active against Gram+ & Gram−, Fungi, Virus, HIV

Compound: VDKGSYLPRPTPPRPIYNRN [SEQ ID NO: 58]
- activity against organisms [4]: active against Gram+ & Gram−

Compound: ILPWKWPWWPWRRGGC [SEQ ID NO: 64]
- activity against organisms [4]: active against Gram+ & Gram−, Fungi, Virus, HIV

Compound: GIGKFLHSAGKFGKAFVGEIMKS [SEQ ID NO: 57]
- activity against organisms [4]: active against Gram+ & Gram−, Virus, Fungi, Parasites, Protozoan, HIV
